These molecules were tested against T1, Human CaV2.2 channels (Homo sapiens, UniProt Q00975) (assay: Fluorescence assay for CaV2.2 channels using potassium depolarization to induce channel opening (FLIPR, Fluo 4)). Details: 3 μM test compound, 30 mM KCl assay buffer (inactivated channel state), HEK293 cells.
T1 construct: expressed in transfected cells; Kir2.3 also stably co-expressed
Type: cell-based
Excerpt: In the process, the Ca^2+ influx is quantified in the FLIPR assay with the aid of a Ca^2+-sensitive dye (type Fluo-4, Molecular Probes Europe BV, Leiden, the Netherlands) in a fluorescent imaging plate reader (FLIPR 3, Molecular Devices, Sunnyvale, USA), as described hereinafter.
Human CaV2.2 channels were stably expressed in HEK293 cells together with alpha2-delta and beta subunits of voltage gated calcium channels. In addition, an inwardly rectifying potassium channel (Kir2.3) was stably expressed in these cells to augment control of the cell membrane potential by the concentration of extracellular potassium ions. Raise of the extracellular potassium concentration leads to depolarization of the membrane potential and thus regulates the voltage dependent state of CaV2.2 channels. For preparation, cells were seeded in black poly-D-lysine coated 96-well plates (Becton Dickinson, Biocoat 4640) in 100 μL medium [500 mL DMEM/F-12 plus Glutamax (Invitrogen 31331-093) plus 5.5 mL MEM NEAA 100× (Invitrogen 11140-035) plus 50 mL FBS decomplemented (Invitrogen 10270-106) plus 200 μg/mL Geneticin (Invitrogen 10131-027) plus 50 μg/mL Hygromycin B (Invitrogen 10687-010) plus 2 μg/mL Blasticidin (anti-bl5b Invivo-Gen) plus 0.2 μg/mL Puromycin (A 11138-03)] at a cell density of 30.000 cells per well. Plates were incubated at 37° C. (5% CO2) for 20 to 23 h. On the day of experiment medium was discarded and cells were loaded with Fluo 4 by addition of 100 μL of basic assay buffer (10 mM HEPES, 1 mM KCl, 149 mM NaCl, 0.8 mM CaCl2, 1.7 mM MgCl2, 10 mM Glucose, 0.1% BSA. pH 7.4) containing 2 μM Fluo 4 (Molecular Probes; F-14201), 0.01% pluronic acid (Molecular Probes; P-6866) and 2.5 mM probenecid (Molecular Probes; P36400). Cells were incubated in the dark at 25° C. for 60 min. Then dye containing buffer was discarded and 100 μL basic (1 mM KCl) or alternative (30 mM KCl) assay buffer was added. The alternative assay buffer contained altered concentrations of KCl (30 mM) and NaCl (120 mM) and was used in order to promote the inactivated channel state. After that 25 μL of basic or alternative assay buffer with or without test compound were added and cells were incubated again in the dark at 25° C. for 15 min. Fluorescence intensity was measured on a FLIPR 3 instrument (Molecular Devices Corp., Sunnyvale, Calif.) with excitation at 480 nm and emission at 535 nm. After continuously reading fluorescence for 30 sec, 50 μL of basic assay buffer containing 210 mM KCl (NaCl omitted) were added for depolarization. Peak fluorescent signal intensity was determined and the amplitude of the peak signal, normalized to base line, was used to measure channel inhibition by test compounds.

T1 sequence (Q00975 whole entry): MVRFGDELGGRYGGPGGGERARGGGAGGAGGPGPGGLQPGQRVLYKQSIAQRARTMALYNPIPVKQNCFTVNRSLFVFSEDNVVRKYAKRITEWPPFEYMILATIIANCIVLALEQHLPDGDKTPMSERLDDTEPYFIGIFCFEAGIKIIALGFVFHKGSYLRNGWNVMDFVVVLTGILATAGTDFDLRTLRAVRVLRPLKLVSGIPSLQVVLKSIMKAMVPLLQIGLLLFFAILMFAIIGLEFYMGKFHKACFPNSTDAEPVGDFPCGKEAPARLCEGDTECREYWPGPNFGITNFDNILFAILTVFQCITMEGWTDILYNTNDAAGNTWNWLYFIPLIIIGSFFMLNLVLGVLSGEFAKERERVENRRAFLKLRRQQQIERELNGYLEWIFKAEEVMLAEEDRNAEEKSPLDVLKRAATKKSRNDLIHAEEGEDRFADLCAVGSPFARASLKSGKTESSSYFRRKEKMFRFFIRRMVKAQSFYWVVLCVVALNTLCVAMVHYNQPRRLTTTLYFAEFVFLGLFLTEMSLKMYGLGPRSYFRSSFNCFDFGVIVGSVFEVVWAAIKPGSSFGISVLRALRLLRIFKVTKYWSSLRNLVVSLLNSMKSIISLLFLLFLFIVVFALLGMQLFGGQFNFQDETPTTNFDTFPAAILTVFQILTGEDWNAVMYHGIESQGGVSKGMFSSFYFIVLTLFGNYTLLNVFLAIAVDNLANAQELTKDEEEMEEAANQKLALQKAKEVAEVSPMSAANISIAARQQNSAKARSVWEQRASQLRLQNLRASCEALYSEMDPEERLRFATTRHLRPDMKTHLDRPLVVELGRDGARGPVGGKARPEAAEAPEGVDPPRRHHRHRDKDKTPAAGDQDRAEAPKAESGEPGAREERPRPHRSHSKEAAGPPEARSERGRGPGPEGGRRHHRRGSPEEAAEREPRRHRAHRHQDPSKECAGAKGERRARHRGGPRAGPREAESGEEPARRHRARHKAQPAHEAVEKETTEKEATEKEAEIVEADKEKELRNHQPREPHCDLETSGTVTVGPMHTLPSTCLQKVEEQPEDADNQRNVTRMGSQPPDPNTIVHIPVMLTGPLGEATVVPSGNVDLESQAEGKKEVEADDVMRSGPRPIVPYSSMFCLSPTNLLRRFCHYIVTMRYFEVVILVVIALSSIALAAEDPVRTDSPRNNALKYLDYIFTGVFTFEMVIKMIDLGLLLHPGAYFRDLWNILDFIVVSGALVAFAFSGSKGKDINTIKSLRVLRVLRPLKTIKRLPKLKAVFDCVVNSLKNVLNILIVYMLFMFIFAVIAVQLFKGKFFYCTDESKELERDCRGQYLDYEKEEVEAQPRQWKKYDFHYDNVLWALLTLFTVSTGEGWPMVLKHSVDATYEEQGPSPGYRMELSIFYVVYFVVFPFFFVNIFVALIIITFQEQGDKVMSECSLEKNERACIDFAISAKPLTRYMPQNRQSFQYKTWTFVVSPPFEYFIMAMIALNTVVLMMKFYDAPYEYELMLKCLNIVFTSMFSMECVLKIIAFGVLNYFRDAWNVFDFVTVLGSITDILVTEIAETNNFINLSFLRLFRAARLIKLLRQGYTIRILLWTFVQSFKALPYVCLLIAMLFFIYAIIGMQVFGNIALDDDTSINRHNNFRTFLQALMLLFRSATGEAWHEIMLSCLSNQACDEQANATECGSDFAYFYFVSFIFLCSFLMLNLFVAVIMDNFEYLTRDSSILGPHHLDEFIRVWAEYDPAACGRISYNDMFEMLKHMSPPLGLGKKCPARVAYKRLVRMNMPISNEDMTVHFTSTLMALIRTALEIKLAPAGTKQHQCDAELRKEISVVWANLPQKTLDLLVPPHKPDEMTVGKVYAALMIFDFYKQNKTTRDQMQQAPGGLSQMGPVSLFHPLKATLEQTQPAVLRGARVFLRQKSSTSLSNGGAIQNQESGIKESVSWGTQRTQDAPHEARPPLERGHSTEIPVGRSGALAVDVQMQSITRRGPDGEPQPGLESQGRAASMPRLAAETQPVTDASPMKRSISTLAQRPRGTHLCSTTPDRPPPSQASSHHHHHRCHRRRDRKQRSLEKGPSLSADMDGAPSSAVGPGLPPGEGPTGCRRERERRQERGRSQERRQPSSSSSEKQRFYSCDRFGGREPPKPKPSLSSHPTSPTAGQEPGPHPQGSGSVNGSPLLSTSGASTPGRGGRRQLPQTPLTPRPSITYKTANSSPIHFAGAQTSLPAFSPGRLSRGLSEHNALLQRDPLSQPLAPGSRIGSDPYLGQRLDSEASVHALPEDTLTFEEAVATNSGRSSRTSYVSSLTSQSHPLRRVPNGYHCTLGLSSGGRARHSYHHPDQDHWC

Row | SMILES | Activity Category: %-Inhib (CaV2.2) @3 μM @30 mM KCl
1 | CC1(S(=O)(=O)c2cccc(C(F)(F)F)c2)CCOC(c2ccc(S(C)(=O)=O)c(S(C)(=O)=O)c2)C1 (single isomer, unassigned) [SC-133, 2-[3,4-Bis(methylsulfonyl)-phenyl]-4-methyl-4-[[3-(trifluoromethyl)phenyl]sulfonyl]-tetrahydro-pyran] | A (%-Inhibition >95%)
2 | CC1(S(=O)(=O)c2cccc(C(F)(F)F)c2)CCOC(c2ccc(-n3cncn3)cc2)C1 (single isomer, unassigned) [SC-135, 1-[4-[4-Methyl-4-[[3-(trifluoromethyl)phenyl]sulfonyl]-tetrahydro-pyran-2-yl]-phenyl]-1H-[1,2,4]triazole] | A (%-Inhibition >95%)
3 | CC1(S(=O)(=O)c2cccc(C(F)(F)F)c2)CCOC(c2ccc(F)c(C(N)=O)c2)C1 (single isomer, unassigned) [SC-138, 2-Fluoro-5-[4-methyl-4-[[3-(trifluoromethyl)phenyl]sulfonyl]-tetrahydro-pyran-2-yl]-benzamide] | C (%-Inhibition >40% up to ≦75%)
4 | CC1(S(=O)(=O)c2cccc(C(F)(F)F)c2)CCOC(c2ccc(F)c(C(N)=O)c2)C1 (single isomer, unassigned) [SC-139, 2-Fluoro-5-[4-methyl-4-[[3-(trifluoromethyl)phenyl]sulfonyl]-tetrahydro-pyran-2-yl]-benzamide] | B (%-Inhibition >75% up to ≦95%)

Same assay, conditions: HEK293, 3 μM test compound, 30 mM KCl assay buffer (inactivated channel state), HEK293 cells; read-out: Activity Category: %-Inhib (CaV2.2) @3 μM @30 mM KCl

Row | SMILES | inhibition at 3 µM
5 | CC1(C)CC(C)(S(=O)(=O)c2cccc(C(F)(F)F)c2)CC(c2ccc(Cl)cc2)O1 (racemic) [SC-302, 6-(4-Chlorophenyl)-2,2,4-trimethyl-4-[[3-(trifluoromethyl)phenyl]sulfonyl]-tetrahydro-pyran] | 75 to 95%
6 | CC1(S(=O)(=O)c2cc(F)cc(C(F)(F)F)c2)CCOC(c2ccc(Cl)cc2)C1 (racemic) [SC-305, 2-(4-Chlorophenyl)-4-[[3-fluoro-5-(trifluoromethyl)-phenyl]sulfonyl]-4-methyl-tetrahydro-pyran] | 75 to 95%
7 | CC1(S(=O)(=O)c2cccc(OC(F)(F)F)c2)CCOC(c2ccc(Cl)cc2)C1 (racemic) [SC-315, 2-(4-Chlorophenyl)-4-methyl-4-[[3-(trifluoromethyloxy)-phenyl]sulfonyl]-tetrahydro-pyran] | > 95%
8 | CC1(S(=O)(=O)c2cccc(OC(F)(F)F)c2)CCOC(c2ccc(S(C)(=O)=O)cc2F)C1 (racemic) [SC-504, 2-(2-Fluoro-4-methylsulfonyl-phenyl)-4-methyl-4-[[3-(trifluoromethyloxy)-phenyl]sulfonyl]-tetrahydro-pyran] | > 95%
9 | CC(C)c1cccc(S(=O)(=O)C2(C)CCOC(c3ccc(S(C)(=O)=O)cc3F)C2)c1 (racemic) [SC-505, 2-(2-Fluoro-4-methylsulfonyl-phenyl)-4-[(3-isopropyl-phenyl)sulfonyl]-4-methyl-tetrahydro-pyran] | > 95%
10 | CC1(S(=O)(=O)c2cccc(C(F)F)c2)CCOC(c2ccc(S(C)(=O)=O)cc2F)C1 (racemic) [SC-508, 4-[[3-(Difluoro-methyl)-phenyl]sulfonyl]-2-(2-fluoro-4-methylsulfonyl-phenyl)-4-methyl-tetrahydro-pyran] | 75 to 95%
11 | CC(C)Oc1cccc(S(=O)(=O)C2(C)CCOC(c3ccc(S(C)(=O)=O)cc3F)C2)c1 (racemic) [SC-511, 2-(2-Fluoro-4-methylsulfonyl-phenyl)-4-[(3-isopropoxy-phenyl)sulfonyl]-4-methyl-tetrahydro-pyran] | 75 to 95%
12 | CC1(S(=O)(=O)c2cccc(C3CC3)c2)CCOC(c2ccc(S(C)(=O)=O)cc2F)C1 (racemic) [SC-514, 4-[(3-Cyclopropyl-phenyl)sulfonyl]-2-(2-fluoro-4-methylsulfonyl-phenyl)-4-methyl-tetrahydro-pyran] | > 95%
13 | CC1(S(=O)(=O)c2cc(F)cc(C(F)(F)F)c2)CCOC(c2ccc(S(C)(=O)=O)cc2F)C1 (racemic) [SC-515, 2-(2-Fluoro-4-methylsulfonyl-phenyl)-4-[[3-fluoro-5-(trifluoromethyl)-phenyl]sulfonyl]-4-methyl-tetrahydro-pyran] | > 95%
14 | CC1(S(=O)(=O)c2cccc(OC(F)F)c2)CCOC(c2ccc(S(C)(=O)=O)cc2F)C1 (racemic) [SC-520, 4-[[3-(Difluoro-methoxy)-phenyl]sulfonyl]-2-(2-fluoro-4-methylsulfonyl-phenyl)-4-methyl-tetrahydro-pyran] | 75 to 95%
15 | CC1(S(=O)(=O)c2cccc(C(F)(F)F)c2)CCC(c2ccc(Cl)cc2)OC1 (single isomer, unassigned) [SC-116, 2-(4-Chlorophenyl)-5-methyl-5-[[3-(trifluoromethyl)phenyl]sulfonyl]-tetrahydro-pyran] | 40 to 75%
16 | CC1(c2ccc(Cl)cc2)CC(S(=O)(=O)c2cccc(C(F)(F)F)c2)CCO1 (single isomer, unassigned) [SC-117, 2-(4-Chlorophenyl)-2-methyl-4-[[3-(trifluoromethyl)phenyl]sulfonyl]-tetrahydro-pyran] | > 95%
17 | CC1(S(=O)(=O)c2cccc(C(F)(F)F)c2)CCOC(COc2ccc(Cl)cc2)C1 (single isomer, unassigned) [SC-127, 2-((4-chlorophenoxy)methyl)-4-methyl-4-((3-(trifluoromethyl)phenyl)sulfonyl)tetrahydro-2H-pyran] | > 95%
18 | CC1(S(=O)(=O)c2cccc(C(F)(F)F)c2)CCOC(Cc2ccc(Cl)cc2)C1 (single isomer, unassigned) [SC-130, 2-[(4-Chlorophenyl)-methyl]-4-methyl-4-[[3-(trifluoromethyl)phenyl]sulfonyl]-tetrahydro-pyran] | 75 to 95%
19 | CC1(S(=O)(=O)c2cccc(C(F)(F)F)c2)CCOC(c2ccc(S(C)(=O)=O)c(S(C)(=O)=O)c2)C1 (single isomer, unassigned) [SC-132, 2-[3,4-Bis(methylsulfonyl)-phenyl]-4-methyl-4-[[3-(trifluoromethyl)phenyl]sulfonyl]-tetrahydro-pyran] | 75 to 95%
20 | CC1(S(=O)(=O)c2cccc(C(F)(F)F)c2)CCOC(c2ccc(-n3cncn3)cc2)C1 (single isomer, unassigned) [SC-134, 1-[4-[4-Methyl-4-[[3-(trifluoromethyl)phenyl]sulfonyl]-tetrahydro-pyran-2-yl]-phenyl]-1H-[1,2,4]triazole] | 75 to 95%
21 | CC1(S(=O)(=O)c2cccc(C(F)(F)F)c2)CCOC(c2ccc(F)c(C#N)c2)C1 (single isomer, unassigned) [SC-136, 2-Fluoro-5-[4-methyl-4-[[3-(trifluoromethyl)phenyl]sulfonyl]-tetrahydro-pyran-2-yl]-benzonitrile] | > 95%
22 | CC1(S(=O)(=O)c2cc(F)cc(C(F)(F)F)c2)CCOC(c2ccc(S(C)(=O)=O)cc2)C1 (single isomer, unassigned) [SC-142, 4-[[3-Fluoro-5-(trifluoromethyl)-phenyl]sulfonyl]-4-methyl-2-(4-methylsulfonyl-phenyl)-tetrahydro-pyran] | 75 to 95%
23 | CC1(S(=O)(=O)c2cccc(C(F)(F)F)c2)CCOC(COc2ccc(S(C)(=O)=O)cc2F)C1 (single isomer, unassigned) [SC-148, 2-[(2-Fluoro-4-methylsulfonyl-phenoxy)-methyl]-4-methyl-4-[[3-(trifluoromethyl)phenyl]sulfonyl]-tetrahydro-pyran] | 75 to 95%
